# Source: patent US20030175438A1, “Treatments of solid substrates to enhance durability of treatments placed thereon” (priority 2002, published 2003)
# Experiment: Bromphenol Blue (BPB) Extraction Method, spectrophotometric at 595 nm (modified CTM 0824), on treated fabric
# Assay type: physicochemical
# Details: for Strike Rate - % BPB Extraction: No Boil, Table XIII
# Method: Sample Preparation: Fabric samples were obtained from the JoAnn fabric chain and were commercial fabrics. The fabrics were cut into rectangular size and were about 1½ inches by 2 inches, and were treated in 0.15 weight percent active antimicrobial agent placed in an Erlenmeyer flask. The agent used in this example was N, N-dimethyl-N-Octadecyl-3-(trimethoxysilyl)propanaminium chloride. The treatment solutions were allowed to hydrolyze from the trimethoxysilyl form to the trisilanol form before adding the fabrics. This takes only a few minutes to essentially complete. The solution temperature was raised to 100° C. before treating the fabrics for 60 seconds by immersion in the solutions with moderate agitation of the solution within the flask. After removing the samples from the hot solution, they were nip rolled to remove excess liquid. Wet Weight Pickup (WWP) was targeted to 100%. The samples were air dried before testing unless otherwise noted. The Extraction, stated in percent, was measured using the Bromphenol Blue Extraction Method using spectrophotometric determination. This method is CTM 0824, which has been modified for use herein in the following manner. The chlorinated solvent has been eliminated and the wavelength is 595 nm. Further, Dow Corning® A521 has been substituted for the Triton.RTM. X-100 wetting agent of the test. What is measured is the diminution of the BPB Absorbance at 595 nm relative to the BPB standard solution and it is reported in percent Extraction. Antimicrobial efficacy was determined using the CTM-0923 Dynamic Shake Flask Test unless otherwise stated.
# The antimicrobial agent used in this example was the same as that used in example 1. The samples were handled the same as in example 1 with the exception of the following. Samples were air and/or oven dried before testing. The % Extraction was measured using the BPB Extraction Method using spectrophotometric determination at 595 nm. If determined, antimicrobial efficacy was determined using the CTM-0923 Dynamic Shake Flask Test. Co-treatments the addition of the fabric to a 0.20 molar solution of the anion plus 0.15 WPA antimicrobial agent. The co-treatment is carried out at 100° C., and the fabric was moderately agitated for 60 seconds. The antimicrobial treatment is the addition of the fabric to a solution of 0.15 WPA antimicrobial agent held at 100° C. with moderate agitation for 60 seconds. Excess solution is removed from the samples, and the WWP is determined by weighing. Boiling was done with 200 milliliters of distilled water in a glass container in a microwave oven. Power setting was 30%, and the solution was gently boiled for 30 minutes. Sample size was nominally 1 gram and fresh water was used for each boiling study. The testing results can be found on Table XIII to XIV, respectively, infra. To differentiate between the application rate of the antimicrobial on the fabric, 25% of the normal sample size, or 0.25 grams of fabric was used to obtain the BPB Extraction values that ranged between 5 and 99%. This yielded values of percent BPB extraction that were in the linear range of the test procedure. Using larger samples creates an inaccurate test.
structure (smiles),measurement,setting,value
"CCCCCCCCCCCCCCCCCC[N+](C)(C)CCC[Si](OC)(OC)OC.[Cl-] [AMT, N, N-dimethyl-N-Octadecyl-3-(trimethoxysilyl)propanaminium chloride]",BOILED IN WATER % EXTRACTION,"130° C./30 minutes, Table XII",27%
same,% BPB EXTRACTION CHANGE,"COTTON, boiled vs not boiled, Table IV",−1%
same,EXTRACTION CHANGE,"COTTON, boiled vs not boiled, Table VI",0%
same,% Extraction @ 595 nm,"NYLON, boiled 30 minutes, Table VI",11%
same,% BPB EXTRACTION @ 595 nm,"NYLON, boiled, Table IX",19%
same,% BPB EXTRACTION @ 595 nm,"NYLON, not boiled, Table IX",85%
same,Boiling Durability % BPB EXTRACTION @ 595 nm,"NYLON, not boiled, Table XVII",80%
same,Strike Rate - % BPB Extraction,"Nylon, 0.25 grams of fabric",8.01%
same,Strike Rate - % BPB Extraction,"Nylon, treatment at pH = 11",45.1%
same,Strike Rate - % BPB Extraction,"PET Staple, treatment at pH = 11",75.82%
same,Boiling Durability - % BPB Extraction,"PET, Boil 30 min., Table XIV",17.9%
same,Strike Rate - % BPB Extraction,"PET, treatment at pH = 11",62.57%
same,% BPB EXTRACTION @ 595 nm,"PET, boiled 30 minutes, Table XV",36%
same,% EXTRACTION CHANGE,"PET, boiled vs not boiled, Table XVII",−64%
same,% BPB EXTRACTION @ 595 nm,"PET, not boiled, Table III",94%
same,Strike Rate - % BPB Extraction,"Rayon, 0.25 grams of fabric",6.94%
